Test [1] deals with T1, specific [^3 H] U-46619 binding to guinea pig platelet membrane (Cavia porcellus, UniProt A0A286Y4I8).
T1 construct: Platelet membranes were prepared according to the following procedure; from tissue; host or cells: guinea pig platelet membranes
T1 sequence (A0A286Y4I8 1-347): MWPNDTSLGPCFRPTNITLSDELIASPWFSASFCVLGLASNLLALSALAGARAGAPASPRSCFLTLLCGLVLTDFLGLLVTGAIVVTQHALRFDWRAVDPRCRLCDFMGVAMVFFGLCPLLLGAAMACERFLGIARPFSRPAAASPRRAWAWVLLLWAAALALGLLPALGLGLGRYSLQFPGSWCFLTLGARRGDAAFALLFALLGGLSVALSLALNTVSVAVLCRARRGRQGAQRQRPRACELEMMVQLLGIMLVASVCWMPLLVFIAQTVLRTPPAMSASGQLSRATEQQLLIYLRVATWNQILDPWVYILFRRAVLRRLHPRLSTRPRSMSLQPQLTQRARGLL
The test can be described thus: Inhibition of specific [^3 H] U-46619 binding to guinea pig platelet membrane. The settings on record: [^3 H] U-46619, 25° C., 30 min; read-out: IC50 (Concentration for 50% inhibition). On the procedure:
Inhibition of specific [^3 H] U-46619 binding to guinea pig platelet membrane
Method: Blood from normal guinea pig was collected into 0.315% citrate solution containing aspirin (final concentration 1 mM) and was centrifuged at 3000 r.p.m. for […]. The PRP (platelet rich plasma) was centrifuged at 4800 r.p.m for 10 min. at 4° C. Platelet membranes were prepared according to the following procedure: In order to remove the residual plasma protein, the platelet pellet was washed once with 30 ml of buffer containing 25 mM Tris-HCl/5 mM MgCl2 (pH 7.4) and recentrifuged to pellet the platelets. The platelets were then resuspended in 20 ml of the same buffer, and the cells were disrupted by sonication. The sonication was performed on ice using a Kontes Sonicator (Vineland, N.J.). The platelets were sonicated for a total of 90 sec. with a 15 sec. burst followed by a 15 sec. intermission. The sonicated mixture was centrifuged at 100,000×g for 1 hour and the membrane fraction was suspended in the same buffer. The protein concentration was adjusted to 1 mg/ml.
The binding assay was performed at 25° C. for 30 min. One ml of the resuspended membrane fraction was incubated with […] of [^3 H] U-46619. The incubation mixture was filtered through a glass fiber membrane (GF/C, whatman) to separate the membrane bound from free [^3 H] U-46619. The membranes were quickly washed twice with 5 ml of cold buffer, mixed with 4 ml of ACS scintillation fluid and counted for [^3 H] U-46619.

Test [2] deals with U-46619 (TXA2 mimic)-induced broncho-constriction. The test can be described thus: Inhibitory effect on U-46619 (TXA2 mimic)-induced broncho-constriction in guinea pig. It is filed as in vivo. The settings on record: Cavia porcellus, iv; 0.31 mg/kg i.v., 9 minutes before U-46619; ** p < 0.01. On the procedure:
Inhibitory effect on U-46619 (TXA2 mimic)-induced broncho-constrictionin guinea pig
Method: Eight male Hartley guinea pigs were used per one group. The guinea pig anesthetized with urethane (1.5 g/kg, i.p.) was fixed in a dorsal position, subjected to tracheotomy and connected to a respirator through a cannula. A side branch of the tracheal cannula was connected to a respirator (Harvard apparatus rodent respirator Type 680) at the rate of 70 strokes/min. and a constant volume of 3 to 5 ml.
Inflation pressure was kept constant at 10 cm H2 O.
After treatment with gallamine triethiodide (1 mg/kg, i.v.), U-46619 (10 μg/Kg) dissolved in a physiological saline solution was given through a carotid cannula and the airway resistance was measured by the overflow technique of Konzett-Rossler method (Konzett, H. and Rossler, R., Naunyn-Schmiedegerg's Arch, Exp. Path. Pharmak., 195, 71-74 (1940). A test compound was suspended in 5% gum arabic solution and was administered orally 1 hour before the treatment with U-46619.
Alternatively, a test compound was dissolved in aqueous 50% dimethylsulfoxide solution and administered interveneously in the dosage of 0.1 ml/100 g body weight 9 minutes before the treatment of U-46619.

Test [3] concerns lipid peroxides production in rat brain homogenates. The test is described as follows: Inhibitory action on lipid peroxides production in rat brain homogenates. It is filed as biochemical. The settings on record: 10^-5 M. The method, then: Inhibitory action on lipid peroxides production in rat brain homogenates
Method: The male SD rat brain tissue was used as 5% homogenate in phosphate-buffered solution. After incubation of the homogenate for 1 hour at 37° C., the amount of lipid peroxides produced was determined by the thiobarbituric acid method according to the description of Ohkawa et al. (Analytical Biochemistry, 95: 551, 1979)
Test compounds were used as a solution of dimethylsulfoxide. The inhibitory action on lipid peroxide production was expressed as a % inhibition as compared with the amount of production in the vehicle group.

Turning to `Cc1c(C)c(Br)c(C)c(C(CCCCCC(=O)O)c2ccc(F)cc2)c1O` (stereo not drawn) [Compound 12, 7-(5-bromo-2-hydroxy-3,4,6-trimethylphenyl)-7-(4-fluorophenyl)heptanoic acid], the IC50 in test [1] is 0.2 µM. In test [2], at 0.31 mg/kg the inhibition in vivo was 96%. For the same compound, in test [3], the “Inhibition (%)” value came to 100%.

These data come from patent publication US5162571A, “Phenol derivatives, their production and use” (Takeda Chemical Industries, Ltd., priority 1987, dated 1992).
